Results reported in US5356903A, “1-cyclopropyl-4-pyridyl-quinolines” (Sterling Winthrop Inc., priority 1993, dated 1994).
Where two headings read alike, the source gives them in different places.

Tests used:
human topoisomerase II = molecular target: T1, human topoisomerase II (Homo sapiens, UniProt P11388); assay: Mammalian Topoisomerase II Inhibition Assay (stabilization of DNA-topo II covalent complex); format: biochemical
T1 construct: Topo II was purified from late log phase suspension cultures of HeLa WIS; endogenous in cells; host or cells: HeLa WIS (late log phase suspension cultures); enzyme purified from the cells
T1 sequence (P11388 whole entry): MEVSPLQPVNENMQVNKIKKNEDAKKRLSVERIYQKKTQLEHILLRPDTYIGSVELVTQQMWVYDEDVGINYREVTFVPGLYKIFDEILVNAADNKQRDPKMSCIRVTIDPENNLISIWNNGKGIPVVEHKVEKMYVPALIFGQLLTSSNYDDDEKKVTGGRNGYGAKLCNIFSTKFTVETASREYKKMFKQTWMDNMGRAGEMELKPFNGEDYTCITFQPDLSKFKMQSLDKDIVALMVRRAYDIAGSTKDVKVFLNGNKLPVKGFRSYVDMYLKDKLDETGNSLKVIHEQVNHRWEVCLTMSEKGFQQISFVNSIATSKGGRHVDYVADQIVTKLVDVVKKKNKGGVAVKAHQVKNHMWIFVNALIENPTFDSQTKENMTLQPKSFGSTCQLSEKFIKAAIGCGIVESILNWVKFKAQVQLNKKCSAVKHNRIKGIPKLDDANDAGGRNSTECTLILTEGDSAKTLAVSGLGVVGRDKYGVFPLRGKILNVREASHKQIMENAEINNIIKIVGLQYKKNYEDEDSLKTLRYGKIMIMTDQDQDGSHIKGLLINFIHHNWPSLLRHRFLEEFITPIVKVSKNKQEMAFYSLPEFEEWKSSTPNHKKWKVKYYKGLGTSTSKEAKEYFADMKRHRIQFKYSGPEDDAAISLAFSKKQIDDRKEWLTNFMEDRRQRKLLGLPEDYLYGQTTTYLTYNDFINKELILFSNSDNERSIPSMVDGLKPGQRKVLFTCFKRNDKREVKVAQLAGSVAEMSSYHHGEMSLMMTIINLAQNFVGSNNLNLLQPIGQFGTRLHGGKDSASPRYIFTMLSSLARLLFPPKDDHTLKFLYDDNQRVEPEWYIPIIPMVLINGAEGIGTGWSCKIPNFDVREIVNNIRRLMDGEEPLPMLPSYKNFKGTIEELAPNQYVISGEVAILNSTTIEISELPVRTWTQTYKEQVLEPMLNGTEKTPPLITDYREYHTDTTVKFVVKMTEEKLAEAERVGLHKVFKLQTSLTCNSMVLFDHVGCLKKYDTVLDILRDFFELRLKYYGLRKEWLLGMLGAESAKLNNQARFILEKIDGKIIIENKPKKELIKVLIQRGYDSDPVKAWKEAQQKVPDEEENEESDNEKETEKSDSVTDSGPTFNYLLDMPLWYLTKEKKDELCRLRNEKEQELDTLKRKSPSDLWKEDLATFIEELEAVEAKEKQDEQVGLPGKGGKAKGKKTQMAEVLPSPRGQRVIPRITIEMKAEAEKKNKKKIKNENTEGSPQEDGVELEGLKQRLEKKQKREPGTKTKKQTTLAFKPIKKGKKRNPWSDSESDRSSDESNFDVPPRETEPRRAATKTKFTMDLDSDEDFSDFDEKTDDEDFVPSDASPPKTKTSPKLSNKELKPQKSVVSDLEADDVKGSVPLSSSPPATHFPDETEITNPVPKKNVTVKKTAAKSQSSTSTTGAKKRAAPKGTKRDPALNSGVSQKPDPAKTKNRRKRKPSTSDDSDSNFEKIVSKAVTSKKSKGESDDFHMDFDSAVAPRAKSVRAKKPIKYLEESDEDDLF
Source text: Mammalian Topoisomerase II Inhibition Assay Procedure
The inhibition of human topoisomerase II (hereafter topo II) was quantitated by a procedure adapted from that described by Trask et al., EMBO J., 3, 671-676 (1984). The assay quantitates the amount of topo II covalently complexed by DNA at equilibrium during a topo II reaction. This assay determines the potential of a compound to stabilize this complex, which potential is closely related to the cytotoxicity of several clinically useful antineoplastic agents.
Topo II was purified from late log phase suspension cultures of HeLa WIS by an adaptation of the method described by Per et al., Mol. Pharmacol., 32, 17-25 (1987).
Assays (in duplicate) were assembled at 4° C. Assay mix (25 μl ) was distributed in Beckman (No. 265270) 1.5 mL microtitre tubes followed by the addition of 5 μl test to yield the final concentrations of assay components:
4 ng 3' end labeled (^32 p) pBR322 DNA (10^7 DPM/μg)
The assay mix including the test compound was incubated for 20 minutes at 37° C. The reaction was terminated at 37° C. by the addition of 3 μl 10% SDS followed by the addition of 266 μl 10 mM Tris-Cl pH 7.5, 20 μg/ml calf thymus DNA, 1% SDS.
A SDS/protein precipitate was formed by the addition of 28 μl 2.5M KCl followed by chilling on ice for a minimum of 10 minutes. The precipitate was collected and washed with a Brandell cell harvester on a GFB glass fiber filter membrane as follows. The contents of the assay tube were drawn up into the harvester. The tube was then rinsed 7× with 10 mM Tris-Cl pH 7.5, 1 mM EDTA and 100 mM KCl. The precipitate was washed with 1 L of a solution of 10 mM Tris-Cl pH 7.5, 1 mMEDTA, 100 mM KCl followed by 1 L of 95% ethyl alcohol and finally 0.5 L 70% of ethyl alcohol (per 48 samples in each case). After drying, CPM was determined by liquid scintillation counting with 5 ml Biofluor (NEN Research Products) or Readisafe (Beckman Instruments Inc.) cocktail.
Preparation of test compound--A stock solution (6 mg/ml) of test compound was prepared either in 0.1N sodium hydroxide or 0.2N hydrogen chloride. This solution then was diluted 1/5 into water and serially thereafter in either 0.02N sodium hydroxide or 0.04N hydrogen chloride, respectively. The stock solution and serial dilution of the test compound was stored at -20° C. prior to testing.
Screening of test compound--As an initial screen, the test compound was tested at a final concentration of 2, 20 and 200 μg/ml. The compound was then retested at a range of concentrations (usually 2-3× steps) bridging their approximate EC50 's, as estimated by the prescreen.
Controls--A solvent control which indicates the base level of topo II-DNA complexes formed in the absence of the test compound was included in each test. A control, in which topo II was omitted, was included for each test compound at the highest drug concentration tested.
Reference Agent--A dose response curve with mAMSA at 0.01, 0.08, 0.16, 0.32, 1.0 and 10 μg/ml was included in each test.
Data reduction--The EC50 (effective concentration at which 50% of the maximal DNA-topo II complex is formed) of a test compound is defined to be the concentration with activity equal to the EC50 of the reference agent, mAMSA. The maximal DNA-topo II complex formed is taken as that equal to that formed at the nearly saturating dose of mAMSA (10 μg/ml).
The results obtained for representative compounds of the invention in the human topoisomerase II assay procedure expressed as EC50 s (μM) are presented in Table 3.

[1] = tested on: pancreatic ductal adenocarcinoma No. 03 (Panc 03); assay: In vivo antitumor assay, Panc03; set-up: species or system murine tumor in mice
Source text: (§1) In vivo Antitumor Assay Procedure
(§2) Mice: Inbred: C3H/He and NCR-nu; and Hybrids: B6D2F1 (C57BL/6 females×DBA/2 males, CD2F1 (Balb/c females×DBS/2 males) and B6C3fl (C57BL/6×C3H) were bred at Wayne State University from strains obtained from the Frederick Cancer Research Facility, Frederick, Md. or purchased from commercial suppliers.
Tumors: Murine Tumor: P388 leukemia and pancreatic ductal adenocarcinoma No. 03 (Panc 03) were used for in vivo testing. Human tumor: A single human tumor, mammary carcinoma MX-1 (MX1) was used for in vivo testing. All tumors are in the Developmental Therapeutics Program frozen tumor respository, maintained by the Biological Testing Branch, Frederick, Md. Each has a detailed description, code identification number, and list of references at the National Tumor Repository. Murine tumors were maintained in the mouse strain of origin and were transplanted in the appropriate F1 hydrid (or the strain of orgin) for therapy trials. Human mammary carcinoma MX-1 (MX1) was maintained as a subcutaneous implant in either athymic Swiss (Cr: NIH (S) - nu) or athymic random bred (NCR-nu) mice and transplanted in NCR-nu for therapy trials.
Chemotherapy: For pancreatic ductal adenocarcinoma No. 3, bilateral tumor implants were used to help ensure a more uniform tumor burden per mouse. The animals necessary to begin an experiment were pooled, implanted bilaterally s.c. on day zero with 30-60-mg tumor fragments using a 12-gauge trocar, and again pooled before randomization to the various treatment and control groups. Chemotherapy was started within three days after tumor implantation while the number of cells per mouse was relatively small (1×10^7 -1×10^8 cells).
End Points for Assessing Antitumor Activity
(§3) Quantitative end points used to assess antitumor activity were percent Increased Life Span (% ILS), and Tumor Growth Inhibition (T/C).
(§4) Endpoints were calculated as follows: […]
Tumors were measured with a caliper once or twice weekly (as needed) until either tumors exceeded 1600 mg or cure was assured. Tumor weights were estimated from two dimensional measurements: Tumor Weight (mg)+(a×b^2)/2, where a and b are the tumor length and width (mm) respectively. Measurements were carried out simultaneously in both treatment and control groups. When the control group tumors reached approximately 750-1500 mg in size (median of group), the median tumor weight of each group was determined (including zeros). The T/C value in percent is an indication of antitumor effectiveness. The % T/C was calculated from the following formula for solid murine tumor models: [formula] where T and C are median tumor weights of the treatment and control groups, respectively. A T/C equal to or less than 42% is considered significant antitumor activity. A T/C value<10% is indicative of a high degree of antitumor activity and is the level used by National Cancer Institute to justify further development if other requirements are met (termed DN-2 level activity). By convention the T/C value for the mammary carcinoma MX-1 model is calculated by the parameter of change in tumor weight. The % T/C was calculated from the following formula for the MX-1 model; [formula] where ΔT and ΔC are the change in mean tumor weight of the test and control groups, respectively, and T (initial) is the initial mean tumor weight of the test group. […] A % T/C≤10 is considered significant activity.

P388 leukemia = assay: In vivo antitumor assay, P388 leukemia; set-up: species or system murine tumor in mice
Source text: as §1, §2
Tumors: Murine Tumor: P388 leukemia and pancreatic ductal adenocarcinoma No. 03 (Panc 03) were used for in vivo testing. Human tumor: A single human tumor, mammary carcinoma MX-1 (MX1) was used for in vivo testing. All tumors are in the Developmental Therapeutics Program frozen tumor respository, maintained by the Biological Testing Branch, Frederick, Md. Each has a detailed description, code identification number, and list of references at the National Tumor Repository. Murine tumors were maintained in the mouse strain of origin and were transplanted in the appropriate F1 hydrid (or the strain of orgin) for therapy trials. Human mammary carcinoma MX-1 (MX1) was maintained as a subcutaneous implant in either athymic Swiss (Cr: NIH (S) - nu) or athymic random bred (NCR-nu) mice and transplanted in NCR-nu for therapy trials. […]
as §3, §4

[2] = tested on: mammary carcinoma MX-1 (MX1); assay: In vivo antitumor assay, mammary carcinoma MX-1; set-up: species or system human tumor in NCR-nu mice; conditions: MX-1, sc tumor/ip drug
Source text: as §1, §2
Tumors: Murine Tumor: P388 leukemia and pancreatic ductal adenocarcinoma No. 03 (Panc 03) were used for in vivo testing. Human tumor: A single human tumor, mammary carcinoma MX-1 (MX1) was used for in vivo testing. All tumors are in the Developmental Therapeutics Program frozen tumor respository, maintained by the Biological Testing Branch, Frederick, Md. […]
as §3, §4
Tumors were measured with a caliper once or twice weekly (as needed) until either tumors exceeded 1600 mg or cure was assured. […] When the control group tumors reached approximately 750-1500 mg in size (median of group), the median tumor weight of each group was determined (including zeros). […] The % T/C was calculated from the following formula for solid murine tumor models: [formula] where T and C are median tumor weights of the treatment and control groups, respectively. […]

[3] = concentration with activity equal to EC50 of mAMSA, 20 min, 37° C, read-out: Topo II EC50
[4] = footnote *: bell shaped dose response, read-out: Topo II EC50 (bell shaped dose response)

EC50 (human topoisomerase II; [3]) [µM] | SMILES | other results
12 | Cc1cc(-c2c(F)cc3c(=N)ccn(C4CC4)c3c2F)cc(C)n1 [Example 4] | 
4 | Cc1cc(-c2c(F)cc3c(c2F)N(C2CC2)C=CC3=CC#N)cc(C)n1 [Example 8b] | 
2.4 | Cc1cc(-c2c(F)cc3c(=NC4CC4)ccn(C4CC4)c3c2F)cc(C)n1 [Example 12] | In vivo antitumor activity, Panc03 ([1]; Panc03, sc tumor/iv drug): Inactive
9.4 | Cc1cc(-c2c(F)cc3c(=NSc4ccc(Cl)cc4)ccn(C4CC4)c3c2F)cc(C)n1 [Example 18] | 
14 | Cc1cc(-c2c(F)cc3c(=NCCN(C)C)ccn(C4CC4)c3c2F)cc(C)n1 [Example 20] | 
3.6 | Cc1cc(-c2c(F)cc3c(=Nc4ccccn4)ccn(C4CC4)c3c2F)cc(C)n1 [Example 23] | 
1.6 | Cc1cc(-c2c(F)cc3c(=Nc4ccccc4O)ccn(C4CC4)c3c2F)cc(C)n1 [Example 24] | 

Continued, compound first:

SMILES | EC50 (human topoisomerase II; [3]) [µM] | other results
Cc1cc(-c2c(F)cc3c(=NN)ccn(C4CC4)c3c2F)cc(C)n1 [Example 1] | 1.7 | In vivo antitumor activity, Panc03 ([1]; Panc03, sc tumor/iv drug): Inactive
Cc1cc(-c2c(F)cc3c(=NNc4ccccn4)ccn(C4CC4)c3c2F)cc(C)n1 [Example 2] | 0.98 | % T/C (Tumor Growth Inhibition), Panc03 ([1]; Panc03, sc tumor/iv drug, T/C ≤42% considered significant): 37%; In vivo antitumor activity, P388 (P388 leukemia; P388, ip tumor/ip drug): Inactive; In vivo antitumor activity, P388 (P388 leukemia; P388, ip tumor/iv drug): Inactive; In vivo antitumor activity, MX-1 [2]: Inactive
Cc1ccc(S(=O)(=O)N=c2ccn(C3CC3)c3c(F)c(-c4cc(C)nc(C)c4)c(F)cc23)cc1 [Example 3] |  | EC50 (human topoisomerase II; [4]): 45 µM
CC(=O)NN=c1ccn(C2CC2)c2c(F)c(-c3cc(C)nc(C)c3)c(F)cc12 [Example 5] | 20 | 
Cc1cc(-c2c(F)cc3c(=NN4C(=O)c5ccccc5C4=O)ccn(C4CC4)c3c2F)cc(C)n1 [Example 6] | 16 | 
Cc1cc(-c2c(F)cc3c(c2F)N(C2CC2)C=CC3=C(C#N)C#N)cc(C)n1 [Example 7] |  | EC50 (human topoisomerase II; [4]): 6.3 µM
CCOC(=O)C(C#N)=C1C=CN(C2CC2)c2c1cc(F)c(-c1cc(C)nc(C)c1)c2F [Example 8a] |  | EC50 (human topoisomerase II; [4]): 4.8 µM
CNN=c1ccn(C2CC2)c2c(F)c(-c3cc(C)nc(C)c3)c(F)cc12 [Example 9] | 1.9 | 
Cc1cc(-c2c(F)cc3c(=NO)ccn(C4CC4)c3c2F)cc(C)n1 [Example 10] | 1.4 | In vivo antitumor activity, Panc03 ([1]; Panc03, sc tumor/iv drug): Inactive
Cc1cc(-c2c(F)cc3c(=NN(C)C)ccn(C4CC4)c3c2F)cc(C)n1 [Example 11] | 2.3 | 
Cc1cc(-c2c(F)cc3c(=NNC(N)=O)ccn(C4CC4)c3c2F)cc(C)n1 [Example 13] | 3.1 | In vivo antitumor activity, Panc03 ([1]; Panc03, sc tumor/iv drug): Inactive
Cc1cc(-c2c(F)cc3c(=NNc4c5ccccc5nc5ccccc45)ccn(C4CC4)c3c2F)cc(C)n1 [Example 14] | 28 | 
Cc1cc(-c2c(F)cc3c(=NNCCO)ccn(C4CC4)c3c2F)cc(C)n1 [Example 15] | 3.2 | 
Cc1cc(-c2c(F)cc3c(=NNc4cnc5ccccc5c4)ccn(C4CC4)c3c2F)cc(C)n1 [Example 16] | 92 | 
CON=c1ccn(C2CC2)c2c(F)c(-c3cc(C)nc(C)c3)c(F)cc12 [Example 17] |  | EC50 (human topoisomerase II; [4]): 2.6 µM
Cc1cc(-c2c(F)cc3c(=NSc4ccccn4)ccn(C4CC4)c3c2F)cc(C)n1 [Example 19] | 3.8 | 
Cc1cc(-c2c(F)cc3c(=NCCCN(C)C)ccn(C4CC4)c3c2F)cc(C)n1 [Example 21] | 5.5 | 
Cc1cc(-c2c(F)cc3c(=Nc4ccccc4)ccn(C4CC4)c3c2F)cc(C)n1 [Example 22] | 1.9 | 
Cc1cc(-c2c(F)cc3c(=Nc4ccc(N)cc4)ccn(C4CC4)c3c2F)cc(C)n1 [Example 25] | 7.6 | 
Cc1cc(-c2c(F)cc3c(=O)ccn(C4CC4)c3c2F)cc(C)n1 [Int A] | 17 | In vivo antitumor activity, Panc03 ([1]; Panc03, route not given): Inactive
Cc1cc(-c2c(F)cc3c(=S)ccn(C4CC4)c3c2F)cc(C)n1 [Int B] |  | EC50 (human topoisomerase II; footnote E: endpoint of assay extrapolated, read-out: Topo II EC50 (endpoint of assay extrapolated)): 76 µM
CSc1cc[n+](C2CC2)c2c(F)c(-c3cc(C)nc(C)c3)c(F)cc12 [Int C] | 24 | 
